Source: publication PMC11530130, “Peripherally restricted PICK1 inhibitor mPD5 ameliorates pain behaviors in murine inflammatory and neuropathic pain models” (JCI Insight, 2024)

Assay: Flow-induced dispersion analysis (FIDA), critical micelle concentration
Type: physicochemical
Text: Supplemental Figure S2. FIDA analysis of mPD5. (A) Molecular properties of mPD5.
(B) Taylorgrams for different concentrations of mPD5 using an uncoated capillary.
(C) Taylorgrams for different concentrations of mPD5 using a Poly-L-ornithine capillary.
(D) Taylorgrams for different concentrations of mPD5 using an HS-coated capillary.
(E) Graphical representation of mPD5 absorption using different coating strategies (B-D).
(F) Binding isotherm of mPD5 combining optimal coatings for different concentrations results in a CMC of 12 µM. […]
FIDA was carried out using a fluorescently labelled (AF488-NHS) mPD5 analogue, and fluorescence was recorded at 488 nm using mPD5-AF488 (25% labelling efficiency) as a tracer (100 nM), using the standard protocol recommended by the manufacturer, in short, mPD5 and mPD5-AF488 (25% labelling efficiency) was loaded to the FIDA1 instrument, and peptide sample was injected into the capillary followed by a buffer injection. The diffusion of the peptide could then be observed using 488 nm fluorescence, and the hydrodynamic radius was calculated using the FIDA software 2.0 using a single Gaussian distribution fit, at 75% and curve smoothing. […]
Concentration series of mPD5 ranging from 0.18 mg/mL to 9.37 mg/mL was prepared in buffer containing 50 mM Tris-HCl (pH 7.4) and 125 mM NaCl. Samples were measured at the P12 SAXS Beamline, PetraIII, DESY, Hamburg Germany (2). […]

SMILES: CCCCCCCCCCCCCC(=O)N(CCOCCOCCC(=O)N[C@@H](Cc1c[nH]cn1)C(=O)N[C@@H](Cc1c[nH]c2ccccc12)C(=O)N[C@@H](CC(C)C)C(=O)N[C@@H](CCCCN)C(=O)N[C@H](C(=O)O)C(C)C)CCOCCOCCC(=O)N[C@@H](Cc1c[nH]cn1)C(=O)N[C@@H](Cc1c[nH]c2ccccc12)C(=O)N[C@@H](CC(C)C)C(=O)N[C@@H](CCCCN)C(=O)N[C@H](C(=O)O)C(C)C [mPD5, myristoyl-NPEG4-(HWLKV)2]
- critical micelle concentration (CMC) (FIDA binding isotherm, optimal coatings combined): 12 µM
- hydrodynamic radius (RH) (FIDA, micellar mPD5): ≈ 30 Å
